The text below walks through data of US20230014181A1, “CULTURE SYSTEM AND METHODS FOR IMPROVED MODELING OF NEUROLOGICAL CONDITIONS” (Genentech, Inc., priority 2021, published 2023).

The subject of experiment [1] is human iPSC neurons and astrocytes treated with 5 μM sAβ42s. The experiment in a line: Focused small molecule screen, double culture (neuron, astrocyte), rescue from sAβ42s toxicity, high content imaging. As to conditions: for percent rescue from sAβ42s toxicity at 6.25 µM / percent rescue from sAβ42s toxicity at 25 µM / percent rescue from sAβ42s toxicity at 50 µM: Homo sapiens, iPSC; for percent rescue from sAβ42s toxicity at 6.25 µM / percent rescue from sAβ42s toxicity at 25 µM / percent rescue from sAβ42s toxicity at 50 µM / % B3T rescue / % Cux2 rescue / % MAP2 rescue / % Synapse rescue: double culture, 5 μM sAβ42s. In kind it is cell-based. The gist of the method:
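Human iPSC neuron–astrocyte cultures given 5 μM sAβ42 oligomers plus compounds at 50, 25, 12.5 and 6.25 μM (10× additions). Fixed cells immunostained for MAP2, synapsin 1/2, CUX2 and beta III tubulin, imaged by confocal high-content microscopy; % rescue computed, ≥30% in any readout scored as hit.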

The subject of experiment [2] is human iPSC neurons, astrocytes and microglia treated with 5 μM sAβ42s. The experiment in a line: Focused small molecule screen, triple culture (neuron, astrocyte, microglia), rescue from sAβ42s toxicity. As to conditions: for percent rescue from sAβ42s toxicity at 0.78 µM / percent rescue from sAβ42s toxicity at 3.13 µM / percent rescue from sAβ42s toxicity at 12.5 µM / percent rescue from sAβ42s toxicity at 50 µM: Homo sapiens, iPSC. In kind it is cell-based. The method in brief:
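A hit was any compound giving ≥30% rescue of dendrite area (MAP2), synapse count, CUX2 cell count or axon area when dosed against 5 μM sAβ42s toxicity. Testing used iPSC-derived double (neuron/astrocyte) or triple (plus microglia) cultures, at four concentrations of 50, 25, 12.5 and 6.25 μM for double and 50, 12.5, 3.1 and 0.78 μM for triple cultures.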

Setting [3] is: 50 μM compound, read-out: % B3T rescue.
[4] abbreviates: 50 μM compound, read-out: % Cux2 rescue.
Where [5] appears, read: 50 μM compound, read-out: % MAP2 rescue.
[6] abbreviates: 50 μM compound, read-out: % Synapse rescue.
Where [7] appears, read: 50.00 μM compound, read-out: % B3T rescue.
Where [8] appears, read: 50.00 μM compound, read-out: % MAP2 rescue.
[9] abbreviates: 50.00 μM compound, read-out: % Synapse rescue.

Read-outs that look alike come from different tables or passages of the source.

Consider `N#Cc1ccnc(Nc2cc(C3CCN(C4COC4)CC3)cc(N3CCC(F)(F)C3)n2)c1` [GNE-3511], for which the percent rescue from sAβ42s toxicity at 6.25 µM in experiment [1] (6.25 μM compound, read-out: % B3T rescue) turned out to be 15%; in experiment [1] (6.25 μM compound, read-out: % Cux2 rescue), 18%; in experiment [1] (6.25 μM compound, read-out: % MAP2 rescue), 32%; in experiment [1] (6.25 μM compound, read-out: % Synapse rescue) it was 7%. Also, the percent rescue from sAβ42s toxicity at 25 µM in experiment [1] (25 μM compound, read-out: % B3T rescue) worked out at 17%; in experiment [1] (25 μM compound, read-out: % Cux2 rescue), 36%; in experiment [1] (25 μM compound, read-out: % MAP2 rescue) it was 49%; in experiment [1] (25 μM compound, read-out: % Synapse rescue), 14%. The percent rescue from sAβ42s toxicity at 50 µM in experiment [1] (setting [3]) came out at 58%; in experiment [1] (setting [4]) it was 81%; in experiment [1] (setting [5]), 87%; in experiment [1] (setting [6]), 47%; in experiment [2] (setting [7]) it was 65%; in experiment [2] (setting [8]), 66%. Besides, in experiment [2] (setting [9]), the percent rescue from sAβ42s toxicity at 50 µM worked out at 56%. The percent rescue from sAβ42s toxicity at 0.78 µM in experiment [2] (0.78 μM compound, read-out: % B3T rescue) was found to be 85%; in experiment [2] (0.78 μM compound, read-out: % MAP2 rescue) it was 91%; in experiment [2] (0.78 μM compound, read-out: % Synapse rescue), 79%. The percent rescue from sAβ42s toxicity at 3.13 µM in experiment [2] (3.13 μM compound, read-out: % B3T rescue) is 81%; in experiment [2] (3.13 μM compound, read-out: % MAP2 rescue) it was 95%; in experiment [2] (3.13 μM compound, read-out: % Synapse rescue), 77%. For the same compound, the percent rescue from sAβ42s toxicity at 12.5 µM in experiment [2] (12.50 μM compound, read-out: % B3T rescue) turned out to be 82%; in experiment [2] (12.50 μM compound, read-out: % MAP2 rescue) it was 102%; in experiment [2] (12.50 μM compound, read-out: % Synapse rescue) it was 81%.

For `COC(=O)C1(C)c2[nH]c3ccccc3c2CCN1C(=O)CCl` (centres unmarked) [PDI Inhibitor 16F16], the “% B3T rescue” value is on record as 27% in experiment [1] (6.25 μM compound); 3% in experiment [1] (12.5 μM compound); −46% in experiment [1] (25 μM compound); −22% in experiment [1] (50 μM compound); 71% in experiment [2] (3.13 μM compound); 43% in experiment [2] (12.50 μM compound). For the same compound, the “% B3T rescue” value in experiment [2] (50.00 μM compound) amounted to 42%. For the same compound, the “% Cux2 rescue” value was 46% in experiment [1] (6.25 μM compound), 45% in experiment [1] (12.5 μM compound), 66% in experiment [1] (25 μM compound) and 34% in experiment [1] (50 μM compound). Also, the “% MAP2 rescue” value in experiment [1] (6.25 μM compound) is 6%; in experiment [1] (12.5 μM compound), 1%; in experiment [1] (25 μM compound), −10%; in experiment [1] (50 μM compound), −12%; in experiment [2] (3.13 μM compound) it was 44%; in experiment [2] (12.50 μM compound), −6%. The “% MAP2 rescue” value in experiment [2] (50.00 μM compound) is on record as −5%. Besides, the “% Synapse rescue” value in experiment [1] (6.25 μM compound) was 5%; in experiment [1] (12.5 μM compound), −1%; in experiment [1] (25 μM compound), −8%; in experiment [1] (50 μM compound), −13%; in experiment [2] (3.13 μM compound), 43%; in experiment [2] (12.50 μM compound), 8%. Further, the “% Synapse rescue” value in experiment [2] (50.00 μM compound) was −1%.

For the compound `N#CC(c1ccnc(NCCc2cccnc2)n1)c1nc2ccccc2s1` (centres unmarked) [AS601245], the “% B3T rescue” value in experiment [1] (6.25 μM compound) was 14%; in experiment [1] (12.5 μM compound), 20%; in experiment [1] (25 μM compound), 11%; in experiment [1] (50 μM compound), −16%; in experiment [2] (3.13 μM compound) it was 18%; in experiment [2] (12.50 μM compound), 26%. Further, the “% B3T rescue” value in experiment [2] (50.00 μM compound) is reported as 44%. The “% Cux2 rescue” value in experiment [1] (6.25 μM compound) came out at 9%; in experiment [1] (12.5 μM compound) it was 13%; in experiment [1] (25 μM compound), 32%; in experiment [1] (50 μM compound), 123%. Further, the “% MAP2 rescue” value in experiment [1] (6.25 μM compound) was 49%; in experiment [1] (12.5 μM compound) it was 67%; in experiment [1] (25 μM compound), 73%; in experiment [1] (50 μM compound), 64%; in experiment [2] (3.13 μM compound), 54%; in experiment [2] (12.50 μM compound), 74%. Also, the “% MAP2 rescue” value in experiment [2] (50.00 μM compound) is 95%. Moreover, the “% Synapse rescue” value in experiment [1] (6.25 μM compound) came to 37%; in experiment [1] (12.5 μM compound), 57%; in experiment [1] (25 μM compound), 36%; in experiment [1] (50 μM compound) it was 19%; in experiment [2] (3.13 μM compound), 17%; in experiment [2] (12.50 μM compound), 26%. For the same compound, the “% Synapse rescue” value in experiment [2] (50.00 μM compound) is 45%. Besides, in experiment [1] (double and triple cultures), the “protection in focused screens” value is listed as “protective to a lesser extent”.

For the compound `CC(=O)c1c(C)c2cnc(Nc3ccc(N4CCNCC4)cn3)nc2n(C2CCCC2)c1=O` [PD 0332991 isethionate], the percent rescue from sAβ42s toxicity at 50 µM in experiment [1] (setting [3]) is 69%; in experiment [1] (setting [4]) it was -37%; in experiment [1] (setting [5]), -97%; in experiment [1] (setting [6]) it was -15%; in experiment [2] (setting [7]), 90%; in experiment [2] (setting [8]) it was -79%. Moreover, the percent rescue from sAβ42s toxicity at 50 µM in experiment [2] (setting [9]) is -29%.

Regarding `N#C/C(=C\c1ccc(O)c(O)c1)C(=O)OCCc1cccs1` [2-TEDC], in experiment [1] (50 μM compound), the “% B3T rescue” value turned out to be 31%, the “% Cux2 rescue” value is 16%, the “% MAP2 rescue” value came to 22% and the “% Synapse rescue” value turned out to be 10%. Also, in experiment [2] (3.13 μM compound), the “% B3T rescue” value is recorded as 40%, the “% MAP2 rescue” value is on record as 22% and the “% Synapse rescue” value came out at 15%. Moreover, in experiment [2] (12.50 μM compound), the “% B3T rescue” value turned out to be 43%, the “% MAP2 rescue” value is 25% and the “% Synapse rescue” value was determined as 17%. In experiment [2] (50.00 μM compound), the “% B3T rescue” value was 73%, the “% MAP2 rescue” value came out at 48% and the “% Synapse rescue” value came to 40%.

As to `CCN(CC)CCNC(=O)c1c(C)[nH]c(/C=C2\C(=O)Nc3ccc(F)cc32)c1C` [SU 11248], in experiment [1] (25 μM compound), the “% B3T rescue” value is −19%, the “% Cux2 rescue” value stood at 59%, the “% MAP2 rescue” value is 16% and the “% Synapse rescue” value was 4%. For the same compound, in experiment [1] (50 μM compound), the “% B3T rescue” value is on record as 4%, the “% Cux2 rescue” value came to 115%, the “% MAP2 rescue” value was found to be 7% and the “% Synapse rescue” value is recorded as 21%. In experiment [2] (0.78 μM compound), the “% B3T rescue” value is 69%, the “% MAP2 rescue” value is on record as 73% and the “% Synapse rescue” value turned out to be 68%. Also, in experiment [2] (3.13 μM compound), the “% B3T rescue” value worked out at 74%, the “% MAP2 rescue” value is listed as 88% and the “% Synapse rescue” value is 77%.

For the compound MDL 28170, the “% B3T rescue” value in experiment [1] (6.25 μM compound) was 18%; in experiment [1] (12.5 μM compound), 22%; in experiment [1] (25 μM compound), 25%; in experiment [1] (50 μM compound), 47%; in experiment [2] (0.78 μM compound), 30%; in experiment [2] (12.50 μM compound), 33%. The “% B3T rescue” value in experiment [2] (50.00 μM compound) was 73%. Further, the “% Cux2 rescue” value came out at 81% in experiment [1] (6.25 μM compound), 74% in experiment [1] (12.5 μM compound), 84% in experiment [1] (25 μM compound) and 57% in experiment [1] (50 μM compound). Besides, the “% MAP2 rescue” value in experiment [1] (6.25 μM compound) is 33%; in experiment [1] (12.5 μM compound), 33%; in experiment [1] (25 μM compound), 36%; in experiment [1] (50 μM compound) it was 26%; in experiment [2] (0.78 μM compound) it was 19%; in experiment [2] (12.50 μM compound), 31%. In addition, the “% MAP2 rescue” value in experiment [2] (50.00 μM compound) turned out to be 47%. Also, the “% Synapse rescue” value in experiment [1] (6.25 μM compound) was determined as 10%; in experiment [1] (12.5 μM compound) it was 9%; in experiment [1] (25 μM compound) it was 11%; in experiment [1] (50 μM compound), 23%; in experiment [2] (0.78 μM compound), 10%; in experiment [2] (12.50 μM compound), 8%. Besides, the “% Synapse rescue” value in experiment [2] (50.00 μM compound) turned out to be 41%.
